Source: patent publication US20230024119A1, “COMBINED USE OF SODIUM TRANS-[TETRACHLORIDOBIS(1H-INDAZOLE)RUTHENATE(III)] AND ETOMOXIR FOR TREATING CANCERS” (Bold Therapeutics, Inc., priority 2019, published 2023)

Legend:
[1] = test system: KP1339-resistant cells; settings: upon KP1339 treatment
Experimental: (§1) (also referred to herein as KP1339 or BOLD-100 or IT139). […] Lipid storage compartments (lipid droplets) were visualized fluorescently with Bodipy 493/503. Utilizing specific pharmacological inhibitors, the role of altered lipid metabolism components in KP1339 resistance was dissected. Mitochondrial oxygen consumption rate (OCR) and extracellular acidification rate (ECAR) were assessed by Seahorse XF analysis. Lipidomics and consecutive proteomics analysis were used to further characterize the resistance phenotype.

[2] = test system: sensitive HCT116 cells
Experimental: as §1

[3] = test system: HCT116 and Capan1 cell models with acquired KP1339 resistance; assay: Sensitivity of KP1339-resistant cell models to lipid-modulating agents; format: cell-based
Experimental: as §1

Row | SMILES | mitochondrial oxygen consumption rate (OCR) [1] | extracellular acidification rate (ECAR) ([2]; Seahorse Mito Stress Test, sensitive HCT116 cells) | mitochondrial oxygen consumption rate (OCR) ([2]; upon KP1339 treatment, parental cells) | amount of Compound A present in the lyophilized product (cooling the solution during the formulation process) | degradation in water (in water) | sensitivity towards lipid-modulating agents [3]
1 | [Cl][Ru]([Cl])([Cl])[Cl].[Na+].c1ccc2[nH]ncc2c1.c1ccc2[nH]ncc2c1 [KP1339, Sodium trans-[tetrachloridobis(1H-indazole)ruthenate(III)]] | stayed unchanged in resistant cells | massively reduced ECAR | reduced in parental | greatly reduce the amount of Compound A | can degrade in water to Compound A | –
2 | CCCCCCCCCCC[C@@H](C[C@@H]1OC(=O)[C@H]1CCCCCC)OC(=O)[C@H](CC(C)C)NC=O [orlistat] | – | – | – | – | – | hypersensitive
3 | CCC/C=C/C/C=C/C=C/C=N/NN=O [triacsin C] | – | – | – | – | – | hypersensitive
